# Like-named read-outs stand apart in the source and are kept apart here.
# What was measured:
# [1] = Solubility of RPL554 salts in saline solutions, water and aqueous buffer solutions at 25° C. (HPLC); format: physicochemical; details: for solubility at 24 h: thermodynamic from solid
# Method in brief: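 Salts or free base (ca 50 mg) suspended in 1 ml of buffered 0.9% saline (pH 3.5–6.5), 0.7–1.1% saline or deionised water, agitated 24 h at 25° C. Filtrates analysed by HPLC with single-point calibration; solubility expressed as RPL554 free base, not salt.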
# [2] = Intrinsic dissolution of compressed tablet, pH 7.0, 37° C. (Sirius inForm); format: physicochemical; details: pH 7.0, 0.15 M NaCl, 37° C.
# Description: The dissolution assay (pH-dependent sample dissolution) was investigated using the Sirius inForm.
# Dissolution of a compressed tablet of the compound was monitored in a pH 7.0 aqueous dissolution experiment (0.15 M NaCl) at 37° C. using UV-absorption spectroscopy in 2 hour experiments. A tablet with a diameter of 3 mm, requiring approximate weights of 10 mg was compressed under a weight of 100 kg load force. Only one face of the tablet was exposed to the dissolution medium, which contained a 0.01 M acetate/phosphate buffer system to minimise perturbation of the experimental pH from dissolution of the drug.
# Stirring of the solution was continuous and at a constant rate of 100 rpm. The absorption data was converted to absolute sample weights using previously determined, pH-dependent, molar extinction coefficients. An appropriate wavelength range was chosen to ensure that spectroscopic data with an absorption value of <1.3 was analysed, avoiding erroneous dissolution results due to saturation of the UV light source.
# [3] = Primary particle size analysis by laser light diffraction (Mastersizer 2000); format: physicochemical; details: micronised, mean n=3
# Description: A Mastersizer 2000 fitted with a Scirocco 2000 dry powder dispersion unit (Malvern Instruments Ltd, UK) was used to analyse the primary particle size of the micronised RPL554 and salt variants. The salts (50 mg) were automatically sampled via a vibrating feed control at a feeder rate of 60% and dispersed in compressed air at a pressure of 3 bar.
# [4] = Solubility of RPL554 and salts in pMDI propellant systems; format: physicochemical
# Description: Quantitative assessment of the solubility of RPL554 and salt variants in the propellant systems of selected pMDI formulations (three replicates of each formulation) was performed. pMDIs were directly coupled to an adaptor fitted with a 0.20 μm filter unit connected, in series to a 21 G needle, which was inserted via a rubber septum, into a cooled multi-dose glass vial. A 19 G filter needle was inserted through the septum to aid evaporation of propellant from the vial. Prior to the filtration process the vial was cooled in a mixture of dry ice and acetone to ensure that the pressure within the vial was reduced in order to facilitate collection of the output from the pMDI. Ten consecutive actuations of the pMDI were fired through the filter and collected in the vial. Between actuations the canister was shaken for approximately 10 seconds. The pMDI unit was weighed before and after the filtering procedure. The filtrate was stored at room temperature and allowed to evaporate to dryness.
# Samples were recovered by carefully rinsing the inside of the vials with 1 mL of recovery solution before transfer to HPLC vials for analysis. The estimated % of RPL554 solubilised within the canister was calculated from the starting mass of RPL554 within the canisters, which in turn was calculated using the theoretical molecular weight values of the RPL554 free base and salt variants shown in Table 13. The theoretical molecular weight estimates of the salts were provided by Verona.
# [5] = RPL554 content and content uniformity of 1% w/w lactose powder blends; format: physicochemical; details: for Measured Blend Content (% Theoretical): 1% w/w RPL554 variant: lactose powder blend, expressed as RPL554 base; for **Adjusted RPL554 Content per capsule: per 20 mg capsule of 1% w/w lactose blend, adjusted for measured blend content (% theoretical), as RPL554 base
# Description: Batches (approximately 5 g) of 1% w/w RPL554 free base or salt variants: lactose blends were prepared. In brief, the RPL554 free base or salt plus a small quantity of lactose was passed through a 38 μm sieve. The sieved material plus the remaining lactose was mixed in a glass mortar prior to transfer to a stainless steel screw cap jar and further mixing (10 minutes at 46 rpm) conducted using a Turbula blender. The composition of the dry powder blend was 0.05 g API and 4.95 g lactose.
# In order to determine the content uniformity of the blends, aliquots (approx. 20 mg) of powder were sampled from each blend, accurately weighed, and diluted to volume in 10 mL volumetric flasks with diluent. The flasks were sonicated for 3 minutes before samples were transferred to HPLC vials for analysis.
# [6] = Aerosol performance of DPI formulations (Cyclohaler, NGI); format: physicochemical; details: for †Measured Mass of 1% w/w Blend Delivered per capsule / ††RPL554 Emitted (μg) per capsule (B): Cyclohaler; for †Measured Mass of 1% w/w Blend Delivered per capsule: 5 capsules containing 20 mg powder blend, mass from weight change of capsule-loaded device; for ††RPL554 Emitted (μg) per capsule (B): NGI, mass determined from HPLC analysis of recovered samples; for ††RPL554 Emitted (μg) per capsule (B) / Calculated RPL554 Content (μg) per capsule (A): as RPL554 base; for Calculated RPL554 Content (μg) per capsule (A): calculated from delivered blend mass and measured blend content
# Description: Capsules were hand filled with 20 mg of the 1% w/w RPL554 free base or salt variants: lactose blends, i.e. 200 μg salt per capsule, the fill weight of each capsule was recorded. Due to differences in the molecular weights of the RPL554 salt forms, the amount of RPL554 emitted per actuation varied as a function of molecular weight. The formulations were prepared with no adjustment for differences in molecular weight of the salts.
# The powders were delivered via the Cyclohaler® DPI (PCH Pharmachemie, BV, The Netherlands). The Cyclohaler® DPI is a low resistance device and was operated at a flow rate of 90 L/min for 2.7 seconds. The cut off diameters for the NGI collection stages were calculated for the 90 L/min flow rate using the NGI User Guide (MSP Corporation, 2008).
# The ED, FPD and FPF were determined from inertial impaction tests performed following the deposition of 5 capsules of each formulation into the NGI. For each capsule tested the combined weight of the Cyclohaler® and capsule was determined before and after operation to check that the dose had been delivered. The NGI was fitted with a pre-separator for these determinations. The central cup of the pre-separator was filled with 15 mL of diluent. Following deposition, the solution was recovered in a 20 mL volumetric flask and made up to volume with diluent. RPL554 was quantitatively recovered from the device, induction port and each of the NGI collection stages with 10 mL of diluent.
# The volume of diluent used for each sample was selected to ensure RPL554 concentrations were above the limit of quantitation.
# [7] = Physico-chemical characteristics of salt candidates: solubility in water, pH of aqueous suspension/solution, form post water maturation
# Description: The physico-chemical characteristics of the salt candidates were determined.
# [8] = listed as benzenesulfonate salt
# [9] = listed as p-toluenesulfonate salt
smiles,measurement,setting,value
"COc1cc2c(cc1OC)-c1c/c(=N\c3c(C)cc(C)cc3C)n(CCNC(N)=O)c(=O)n1CC2 [Benzenesulfonate, RPL554 benzenesulfonate]",solubility at 24 h,"[1]; 0.7% w/w saline, saline or isotonic, 24 hours, read-out: Solubility as RPL554 (mg/ml) in 0.7 w/w % Saline",2.27 mg/mL
same,solubility at 24 h,"[1]; 0.9% w/w saline, saline or isotonic, 24 hours, read-out: Solubility as RPL554 (mg/ml) in 0.9 w/w % Saline",2.74 mg/mL
same,solubility at 24 h,"[1]; 1.1% w/w saline, saline or isotonic, 24 hours, read-out: Solubility as RPL554 (mg/ml) in 1.1 w/w % Saline",2.94 mg/mL
same,solubility at 24 h,"[1]; acetate buffer in 0.9% w/w saline, pH 4.5, aqueous buffer, in saline 0.9% w/w, read-out: Solubility as RPL554 (mg/ml) in buffer solution pH 4.5, Acetate",1.39 mg/mL
same,solubility at 24 h,"[1]; citro-phosphate buffer in 0.9% w/w saline, pH 4.5, aqueous buffer, in saline 0.9% w/w, read-out: Solubility as RPL554 (mg/ml) in buffer solution pH 4.5, Citro-phosphate",1.57 mg/mL
same,solubility at 24 h,"[1]; phosphate buffer in 0.9% w/w saline, pH 3.5, aqueous buffer, in saline 0.9% w/w, read-out: Solubility as RPL554 (mg/ml) in buffer solution pH 3.5, Phosphate",1.1 mg/mL
same,solubility at 24 h,"[1]; deionised water, 24 hours, read-out: Solubility as RPL554 (mg/ml) in Water",2.57 mg/mL
same,"Mass of salt (μg) dissolved after 2 hours, Average",[2]; [8],60.1 µg
same,"Mass of salt (μg) dissolved after 2 hours, Test 1",[2]; [8],50.0 µg
same,"Mass of salt (μg) dissolved after 2 hours, Test 2",[2]; [8],70.1 µg
same,D (0.1) (μm),[3],0.46 μm
same,D (0.5) (μm),[3],1.23 μm
same,D (0.9) (μm),[3],3.51 μm
same,Estimated RPL554 solubilised (%),[4]; in HFA 134 with Ethanol/Tween,4.03%
same,Estimated Solubilised RPL554 μg per 50 μL actuation,[4]; in HFA 134 with Ethanol/Tween,6.05 µg
same,Solubility RPL554,[4]; in HFA 134 with Ethanol/Tween,90.57 µg/g
same,Measured Blend Content (% Theoretical),[5],89.34 % Theoretical
same,**Adjusted RPL554 Content per capsule,[5],134.22 µg
same,†Measured Mass of 1% w/w Blend Delivered per capsule,[6],20.04 mg
same,††RPL554 Emitted (μg) per capsule (B),[6],87.57 µg
same,Calculated RPL554 Content (μg) per capsule (A),[6],134.49 µg
same,pH of aqueous suspension/solution,[7]; listed as Benzene sulfonic,3.43
same,solubility,[7]; water,1470 µg/mL
"COc1cc2c(cc1OC)-c1c/c(=N\c3c(C)cc(C)cc3C)n(CCNC(N)=O)c(=O)n1CC2 [p-Toluenesulfonate, RPL554 p-toluenesulfonate]",Solubility as RPL554 (mg/ml) in 0.7 w/w % Saline,[1]; 24 hours,0.83 mg/mL
same,Solubility as RPL554 (mg/ml) in 0.9 w/w % Saline,[1]; 24 hours,0.62 mg/mL
same,Solubility as RPL554 (mg/ml) in 1.1 w/w % Saline,[1]; 24 hours,0.8 mg/mL
same,Solubility as RPL554 (mg/ml) in Water,"[1]; deionised water, 24 hours",1.01 mg/mL
same,"Mass of salt (μg) dissolved after 2 hours, Average",[2]; [9],61.6 µg
same,"Mass of salt (μg) dissolved after 2 hours, Test 1",[2]; [9],51.2 µg
same,"Mass of salt (μg) dissolved after 2 hours, Test 2",[2]; [9],71.9 µg
same,D (0.1) (μm),[3],0.47 μm
same,D (0.5) (μm),[3],1.34 μm
same,D (0.9) (μm),[3],4.53 μm
same,Calculated RPL554 solubilised (%),[4]; in HFA 134,0.08%
same,Calculated Solubilised RPL554 μg per 50 μL actuation,[4]; in HFA 134,0.11 µg
same,Solubility RPL554,"[4]; in HFA 134, BLQ = below limit of quantitation (0.06 μg/mL)",1.56 µg/g
same,Solubility RPL554 (μg/g),"[4]; in HFA 134, BLQ = below limit of quantitation (0.06 μg/mL), listed as p-toluensulfonate",quantifiable levels of solubility
same,Estimated RPL554 solubilised (%),[4]; in HFA 134 with Ethanol/Tween,7.20%
same,Estimated Solubilised RPL554 μg per 50 μL actuation,[4]; in HFA 134 with Ethanol/Tween,10.58 µg
same,Solubility RPL554,[4]; in HFA 134 with Ethanol/Tween,152.85 µg/g
same,Calculated RPL554 solubilised (%),[4]; in HFA 227,BLQ
same,Calculated Solubilised RPL554 μg per 50 μL actuation,[4]; in HFA 227,BLQ
same,Solubility RPL554 (μg/g),[4]; in HFA 227,BLQ
same,Measured Blend Content (% Theoretical),[5],88.66 % Theoretical
same,**Adjusted RPL554 Content per capsule,[5],130.33 µg
same,†Measured Mass of 1% w/w Blend Delivered per capsule,[6],20.02 mg
same,††RPL554 Emitted (μg) per capsule (B),[6],86.84 µg
same,Calculated RPL554 Content (μg) per capsule (A),[6],130.46 µg
same,pH of aqueous suspension/solution,[7]; listed as p-Toluene sulfonic,3.40
